Earlier results as cited in patent publication US20230310417A1, “INJECTABLE ARIPIPRAZOLE FORMULATION” (CIPLA LIMITED, priority 2020, published 2023).

Conditions: room temperature

In the case of `O=C1CCc2ccc(OCCCCN3CCN(c4cccc(Cl)c4Cl)CC3)cc2N1` [Aripiprazole], the aqueous solubility is listed as under 1 µg/mL.
